In article PMC7942396, “Drug Repurposing Screen for Compounds Inhibiting the Cytopathic Effect of SARS-CoV-2” (Frontiers in Pharmacology, 2021):
Counter-ions that a name gives are not always drawn. Like-named read-outs stand apart in the source and are kept apart here. *1 amine or outer side, *2 acyl side, *3 side chain or, on linkers, in order; H or OH if unused. Where a SMILES comes first, the peptide text is derived from it. Bridges are numbered along the chain shown (N, C = ends). [ ]: non-standard residue; d: D form. The star is where a group is joined. pTerphenylCO(4''-OnC5H11) = CCCCCOc1ccc(-c2ccc(-c3ccc(C(=O)*)cc3)cc2)cc1; Orn(4R-OH,5R-OH) = O=C([C@H](C[C@@H](O)[C@@H](O)N[*:3])N[*:1])[*:2]; hTyr(3S-OH,4S-OH) = N[C@H](C(=O)O)[C@H](O)[C@@H](O)c1ccc(O)cc1; Pro(3S-OH,4S-Me) = C[C@H]1CN[C@H](C(=O)O)[C@H]1O; Hyp = O=C(O)[C@@H]1C[C@@H](O)CN1

Experiments:
[1] = in vitro; conditions: African green monkey
[2] = test system: SARS-CoV-2 (USA_WA1/2020); experiment: microbe, parasite or virus in culture; type: cell-based; conditions: for EC50: read-out: CPE EC50
[3] = test system: Vero E6 cells; conditions: cytotoxicity counter-assay, Vero E6 cells without virus
[4] = Severe acute respiratory syndrome coronavirus 2, Vero C1008, SARS-CoV-2 CPE assay, Vero E6 cells, read-out: CPE % Efficacy
[5] = Severe acute respiratory syndrome coronavirus 2, Vero C1008, SARS-CoV-2 CPE assay, Vero E6 cells
[6] = Severe acute respiratory syndrome coronavirus 2, Vero C1008, SARS-CoV-2 CPE assay, Vero E6 cells, confirmed anti-SARS-CoV-2 compounds
[7] = Severe acute respiratory syndrome coronavirus 2, Vero C1008, SARS-CoV-2 CPE assay, Vero E6 cells, efficacy, read-out: CPE % Efficacy
[8] = Severe acute respiratory syndrome coronavirus 2, Vero C1008, […], DMSO 0%, no-virus control 100%, hit confirmation, read-out: CPE % efficacy
[9] = Severe acute respiratory syndrome coronavirus 2, Vero C1008, 72 h
[10] = SARS-CoV-2 CPE assay, Vero E6 cells, confirmed anti-SARS-CoV-2 compounds
[11] = SARS-CoV-2 CPE assay, Vero E6 cells, efficacy
[12] = SARS-CoV-2 CPE assay, Vero E6 cells

| Compound | cytotoxicity at 72 h [1] | EC50 [2, 6] | Emax [2, 7] | CC50 [1] | cytotoxicity [1] | also measured |
| --- | --- | --- | --- | --- | --- | --- |
| COc1c(-c2ccc3cc(NS(C)(=O)=O)ccc3c2)cc(-n2ccc(=O)[nH]c2=O)cc1C(C)(C)C [ABT-333] | 42.5% |  |  |  |  | Emax [2, 4]: 48.7%; EC50 [2, 5]: 12.6 µM |
| CC(/C=C/[C@@H]1C[C@]1(C)c1ccc2c(c1)C(C)(C)CCC2(C)C)=C\C(=O)O [AGN-194204] | 36.8% | 11.2 µM | 57% |  |  |  |
| Cn1c(NC[C@@H](N)Cc2ccccc2)nc(-c2ccncc2)c(-c2ccc3ccccc3c2)c1=O [AMG-548] | 35.4% | 8.91 µM | 75% |  |  | CC50 at 72 h [1]: 17.8 µM |
| CC#C[C@@H](CC(=O)O)c1ccc(OCc2cccc(-c3ccc(C(F)(F)F)cc3)c2)cc1 [AMG-837] |  | 11.2 µM | 106% | 15.8 µM | 20.2% |  |
| CC[C@H](CC#N)OC(=O)N[C@@H](C)c1cccc(NC(=O)Nc2ccc(-c3cnco3)c(OC)c2)c1 [AVN944] | 50.3% | 11.2 µM | 95.3% |  |  | CC50 at 72 h [1]: 3.98 µM |
| COc1cc(N2CCN(C)CC2)ccc1Nc1nccc(-c2cn(C)c3cnccc23)n1 [AZ-191] |  | 8.91 µM | 79.2% | 11.2 µM | 31.2% |  |
| CC1=C(c2ccc(O)cc2)[C@H](c2ccc(OCCN3CCCCC3)cc2)Oc2cc(O)ccc21 [Acolbifene] |  | 5.62 µM | 56.1% | 12.6 µM | 54.1% |  |
| Cc1cc(O[C@@H](CCC(F)(F)F)c2ccc(C(=O)NCCC(=O)O)cc2)cc(C)c1-c1ccc(C(C)(C)C)cc1 [Adomeglivant] | 37% | 3.16 µM | 49.2% |  |  |  |
| CCCCc1oc2ccccc2c1C(=O)c1cc(I)c(OCCN(CC)CC)c(I)c1 [Amiodarone hydrochloride, reference compound] |  |  |  |  | < 30% | Emax [2, 8]: 100% |
| CN(C)CCC=C1c2ccccc2CCc2ccccc21 [Amitriptyline hydrochloride] |  |  |  |  | 0% | Emax [2, 4]: 69.9%; EC50 [2, 5]: 14.1 µM |
| CCOC(=O)C1=C(COCCN)NC(C)=C(C(=O)OC)C1c1ccccc1Cl (stereo not drawn) [Amlodipine] |  |  |  |  | 0% | Emax [2, 4]: 99.8%; EC50 [2, 5]: 12.6 µM |
| Clc1ccc2c(c1)C(N1CCNCC1)=Nc1ccccc1O2 [Amoxapine] |  |  | 34.1% |  | 13.9% |  |
| S=C(NCc1ccc2c(c1)OCO2)N1CCN(c2ncnc3c2oc2ccccc23)CC1 [Amuvatinib] |  | 3.55 µM | 69.8% | 3.16 µM | 30.1% |  |
| CCCCCOc1ccc(-c2ccc(-c3ccc(C(=O)N[C@H]4C[C@@H](O)[C@@H](O)NC(=O)[C@@H]5[C@@H](O)[C@@H](C)CN5C(=O)[C@H]([C@@H](C)O)NC(=O)[C@H]([C@H](O)[C@@H](O)c5ccc(O)cc5)NC(=O)[C@@H]5C[C@@H](O)CN5C(=O)[C@H]([C@@H](C)O)NC4=O)cc3)cc2)cc1 [Anidulafungin] ({pTerphenylCO(4''-OnC5H11)}-[Orn(4R-OH,5R-OH)]T[Hyp][hTyr(3S-OH,4S-OH)]T[Pro(3S-OH,4S-Me)]; lactam 1-C) |  | 6.95 µM | 68.4% | 8.75 µM | 33.7% |  |
| Cc1cccc(/C=N/Nc2cc(N3CCOCC3)nc(OCCc3ccccn3)n2)c1 [Apilimod, reference compound] | < 30% |  |  |  |  | EC50 [2, 9]: 0.023 µM; Emax [2, 8]: 104% |
| CCOC(=O)c1c(CSc2ccccc2)n(C)c2cc(Br)c(O)c(CN(C)C)c12 [Arbidol] |  | 11.2 µM | 105% | 12.6 µM | 17.3% |  |
| C=CC(=O)N[C@H]1CCOC[C@H]1Nc1ncc2cc(-c3c(Cl)c(OC)cc(OC)c3Cl)ccc2n1 [BLU-554] | 0% |  |  |  |  | Emax [2, 4]: 31.5%; EC50 [2, 5]: 12.6 µM |
| C[C@@H](C(=O)Nc1ccc(Cl)cc1)C1CCC(c2ccnc3ccc(F)cc23)CC1 (stereo partly drawn) [BMS-986205] |  |  |  |  | 37.7% | Emax [2, 4]: 69.8% |
| CCCN1CCN(c2ccc(C(=O)NC3(C(=O)NCC#N)CCCCC3)cc2)CC1 [Balicatib, reference compound] | < 30% |  |  |  |  | EC50 [2, 9]: 2 µM; Emax [2, 8]: 100% |
| Nc1nc(Nc2ccc3c(c2)CC[C@@H](N2CCCC2)CC3)nn1-c1cc2c(nn1)-c1ccccc1CCC2 [Bemcentinib] | 115% | 3.55 µM | 69.6% |  |  | CC50 at 72 h [1]: 11.2 µM |
| CCOC(=O)[C@H](CCc1ccccc1)N[C@H]1CCc2ccccc2N(CC(=O)O)C1=O [Benazepril] |  |  |  |  | 0% | Emax [2, 4]: 108%; EC50 [2, 5]: 12.6 µM |
| CN1[C@@H]2CC[C@H]1C[C@@H](OC(c1ccccc1)c1ccccc1)C2 [Benztropine mesylate] |  |  |  |  | 0% | Emax [2, 4]: 59% |
| CC(C)COCC(CN(Cc1ccccc1)c1ccccc1)N1CCCC1 (stereo not drawn) [Bepridil] |  | 11.2 µM | 113% | 22.4 µM | 25.4% |  |

| Compound | cytotoxicity at 72 h [1] | EC50 [2, 6] | Emax [2, 7] | CC50 [1] | cytotoxicity [1] | also measured |
| --- | --- | --- | --- | --- | --- | --- |
| CNCc1ccc(-c2cc(-c3nc(-c4ccc(S(=O)(=O)C(C)C)cc4)cnc3N)on2)cc1 [Berzosertib, reference compound] |  |  |  |  |  | CC50 at 72 h [1]: 11.2 µM; Shape of concentration-response in the CPE assay ([2]; Figure 3): bell-shaped concentration-responses due to cytotoxicity; EC50 [2, 9]: 0.71 µM; Emax [2, 8]: 87.9% |
| c1ccc(-c2ccc(C(c3ccccc3)n3ccnc3)cc2)cc1 (stereo not drawn) [Bifonazole] |  | 10 µM | 36.4% |  | 24.5% |  |
| O=c1ccc2ccc(OCCCCN3CCN(c4cccc5sccc45)CC3)cc2[nH]1 [Brexpiprazole] |  |  |  | 11.2 µM | 25.1% | Emax [2, 4]: 94.9%; EC50 [2, 5]: 14.1 µM |
| CN(C)CCOC(c1ccccc1)c1ccc(Br)cc1 (stereo not drawn) [Bromodiphenhydramine] | 0% |  |  |  |  | Emax [2, 4]: 36%; EC50 [2, 5]: 12.6 µM |
| COC(=O)[C@@]12OC[C@]34[C@H]([C@@H](O)[C@@H]1O)[C@@]1(C)CC(=O)C(O)=C(C)[C@@H]1C[C@H]3OC(=O)[C@H](OC(=O)/C=C(\C)C(C)C)[C@@H]24 [Bruceantin] |  | 0.0319 µM | 42.5% | 0.14 µM | 83.3% |  |
| COc1ccc2c(c1)[C@]1(C[C@H]1c1ccc3c(/C=C/c4ccc(CN5C[C@@H](C)O[C@@H](C)C5)cc4)n[nH]c3c1)C(=O)N2 [CFI-400945] | 31.4% | 11.2 µM | 77.8% |  |  |  |
| Cn1c(Nc2ccc(C(F)(F)F)cc2)nc2cc(Oc3ccnc(-c4ncc(C(F)(F)F)[nH]4)c3)ccc21 [CHIR-265] |  | 0.79 µM | 31.7% | 0.32 µM | 92.7% |  |
| COc1c(C)cnc(Cn2cnc3c(Cl)nc(N)nc32)c1C [CNF-2024] |  | 2.24 µM | 51.3% | 0.35 µM | 21.1% |  |
| CN(C)c1cc2c(cc1Sc1nc3c(N)nccc3n1CCNCC(C)(C)C)OCO2 [CUDC-305] | 27.7% | 2.51 µM | 74.5% |  |  | CC50 at 72 h [1]: 0.71 µM |
| CCCC[C@@H](C=O)NC(=O)[C@H](CC(C)C)NC(=O)OCc1ccccc1 [Calpeptin, reference compound] |  |  |  |  | < 30% | EC50 [2, 9]: 0.5 µM; Emax [2, 8]: 112% |
| Cc1ccc(-c2cc(C(F)(F)F)nn2-c2ccc(S(N)(=O)=O)cc2)cc1 [Celecoxib] |  | 11.2 µM | 79.2% | 15.8 µM | 9% |  |
| COc1ccc2cc1Oc1ccc(cc1)C[C@H]1c3c(cc4c(c3Oc3cc5c(cc3OC)CCN(C)[C@@H]5C2)OCO4)CCN1C [Cepharanthine] |  | 1.41 µM | 91.3% | 11.2 µM | 105% |  |
| CN1CCN(C(c2ccccc2)c2ccc(Cl)cc2)CC1 (stereo not drawn) [Chlorcyclizine] | 18% |  |  |  |  | CC50 at 72 h [1]: 22.4 µM; Emax [2, 4]: 67.4%; EC50 [2, 5]: 12.6 µM |
| Oc1c(Cl)cc(Cl)c2cccnc12 [Chloroxine] |  | 11.2 µM | 64.9% | 7.08 µM | 61.5% |  |
| CN(C)CCOC(C)(c1ccccc1)c1ccc(Cl)cc1 (stereo not drawn) [Chlorphenoxamine] | 36.9% | 6.31 µM | 75.3% |  |  | CC50 at 72 h [1]: 11.2 µM |
| CN(C)CCCN1c2ccccc2Sc2ccc(Cl)cc21 [Chlorpromazine] |  |  |  | 11.2 µM | 45.6% | Emax [2, 4]: 102%; EC50 [2, 5]: 12.6 µM |
| Cc1cc(C2CCCCC2)n(O)c(=O)c1 [Ciclopirox] | 56.1% | 8.91 µM | 63.4% |  |  | CC50 at 72 h [1]: 2.51 µM |
| Oc1c(I)cc(Cl)c2cccnc12 [Clioquinol] | 62.2% | 6.31 µM | 55.1% |  |  | CC50 at 72 h [1]: 3.16 µM |
| CN(C)CCCN1c2ccccc2CCc2ccc(Cl)cc21 [Clomipramine hydrochloride] |  |  | 91.6% |  | 33.2% |  |
| Clc1ccc2c(c1)CCc1cccnc1C2=C1CCNCC1 [Desloratadine] |  |  |  |  | 14.2% |  |
| (-)-Indolactam V |  |  |  |  |  | % Cytotox [3]: 20.4%; CC50 ([3]; read-out: Cytotox CC50): 1.24 µM; EC50 [2, 10]: 1.56 µM; CPE % Efficacy [2, 11]: 74.4% |
| GSK 9027 |  |  |  |  |  | % Cytotox [3]: 24.3%; CPE % Efficacy [2, 12]: 104.1%; EC50 [2, 12]: 12.6 µM |
| HBX 19818 |  |  |  |  |  | % Cytotox [3]: 39.1%; EC50 [2, 10]: 7.94 µM; CPE % Efficacy [2, 11]: 80.9% |
